Experimental findings from patent US20110230472A1, “RING-FUSED AZOLE DERIVATIVE HAVING PI3K-INHIBITING ACTIVITY” (Shionogi & Co., Ltd., priority 2008, published 2011) are described below.

Structures are written as SMILES.

The first assay deals with PI-3 kinase γ (Homo sapiens, UniProt P48736). Description: PI3Kγ inhibitory activity, PI3-kinase HTRF assay (inhibition ratio). Format: biochemical. To be noted: 0.5 h; PI3Kγ, compound at 10 μM. The gist of the method: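 PI3Kγ preincubated 10 min with compound and PIP2 substrate (MgCl2, DTT), then ATP added for 30 min at room temperature. PIP3 detected by HTRF (665/620 nm ratio) after 18 h. Inhibition ratio at 50 or 10 μmol/L, normalised to no-compound and no-enzyme controls.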
PI-3 kinase γ, sequence (P48736 whole entry): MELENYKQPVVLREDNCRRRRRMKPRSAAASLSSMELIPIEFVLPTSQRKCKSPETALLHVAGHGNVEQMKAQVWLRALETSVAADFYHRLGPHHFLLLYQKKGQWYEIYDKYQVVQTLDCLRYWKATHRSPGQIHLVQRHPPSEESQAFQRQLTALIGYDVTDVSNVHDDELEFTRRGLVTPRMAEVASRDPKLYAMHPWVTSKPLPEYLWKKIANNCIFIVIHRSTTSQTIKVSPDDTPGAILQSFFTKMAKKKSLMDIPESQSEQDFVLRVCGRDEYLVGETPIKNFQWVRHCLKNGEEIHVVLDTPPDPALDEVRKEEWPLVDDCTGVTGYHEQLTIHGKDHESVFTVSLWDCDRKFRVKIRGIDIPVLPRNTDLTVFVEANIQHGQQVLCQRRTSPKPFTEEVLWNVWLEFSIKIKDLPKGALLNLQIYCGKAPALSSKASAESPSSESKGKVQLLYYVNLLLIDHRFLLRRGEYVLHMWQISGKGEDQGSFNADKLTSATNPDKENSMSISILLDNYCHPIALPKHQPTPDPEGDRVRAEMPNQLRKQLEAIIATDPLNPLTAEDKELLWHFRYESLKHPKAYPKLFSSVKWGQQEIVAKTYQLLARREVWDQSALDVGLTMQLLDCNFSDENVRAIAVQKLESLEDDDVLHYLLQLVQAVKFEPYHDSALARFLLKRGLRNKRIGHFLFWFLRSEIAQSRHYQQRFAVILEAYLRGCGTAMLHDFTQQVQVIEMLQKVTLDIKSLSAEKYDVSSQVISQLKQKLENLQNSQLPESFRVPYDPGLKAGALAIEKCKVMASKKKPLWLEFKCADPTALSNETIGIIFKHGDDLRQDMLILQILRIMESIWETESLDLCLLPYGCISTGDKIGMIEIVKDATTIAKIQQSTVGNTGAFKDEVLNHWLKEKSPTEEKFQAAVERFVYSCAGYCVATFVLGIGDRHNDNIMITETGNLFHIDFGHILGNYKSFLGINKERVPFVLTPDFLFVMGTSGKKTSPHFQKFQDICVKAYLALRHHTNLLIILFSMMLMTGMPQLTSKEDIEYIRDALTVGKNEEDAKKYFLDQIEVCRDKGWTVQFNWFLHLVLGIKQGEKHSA
Background: In TR-FRET formats the signal depends on donor and acceptor labels being close together.
With `COc1cc(N2CCc3nc(NC(=O)NCCC(=O)N4[C@H](C)CCC[C@@H]4C)sc3C2)nc(OC)n1` [Compound I-271], the inhibition at 10 µM is no less than 95%. Still for that read-out and setting: for `CNC(=O)Nc1nc2c(s1)CN(c1cc(Oc3ccccc3)nc(OCCCO)n1)CC2` [Compound I-263] the value was no less than 95%; for `COc1cc(N2CCc3nc(NC(=O)NCCC(=O)N(C)C(C)(C)C)sc3C2)nc(OC)n1` [Compound I-270], no less than 95%.

For `CNC(=O)Nc1cc2n(n1)CCN2c1ccc(C(=O)NC)s1` [Compound I-256], the inhibition at 10 µM came to 78%.

In the case of `COc1cc(N2CCc3nc(NC(=O)NCCC(=O)N(C(C)C)C(C)C)sc3C2)nc(OC)n1` [Compound I-272], the inhibition at 10 µM is no less than 95%. For `COc1cc(N2CCc3nc(NC(=O)CCNC(=O)OC(C)(C)C)sc3C2)nc(OC)n1` [Compound I-281], the inhibition at 10 µM is no less than 95%.

The assay is the same for the next values; noted with them: 0.5 h; PI3Kγ, compound at 50 μM.
For the compound `CNC(=O)Nc1nc2c(s1)CN(c1cc(Cl)nc(SC)n1)CC2` [Compound I-128], the inhibition at 50 µM is no less than 95%.

In the case of `CC(=O)Nc1cc2n(C(=O)OC(C)(C)C)ccn2n1` [Compound I-7], the inhibition at 50 µM is no less than 95%.

On to `CNC(=O)Nc1cc2n(n1)CCN2c1cccc(-c2csc(N)n2)c1` [Compound I-192], for which the inhibition at 50 µM is no less than 95%. Still for that read-out and setting: to `O=C(Nc1cc2n(n1)CCN2c1cccc(Cl)c1)c1ccccc1` [Compound I-219] belongs no less than 95%; to `CNC(=O)Nc1cc2n(n1)CCN2c1cc(C#CCOC)cc(C(=O)N2CCOCC2)c1` [Compound I-233], 84%. On the same count and under the same terms, to `O=C(Nc1cc2n(n1)CCN2c1ccccc1)c1ccccc1` [Compound I-135] belongs no less than 95%; to `CNC(=O)Nc1cc2n(n1)CCN2c1ccncc1` [Compound I-141], no less than 95%; to `CNC(=O)Nc1cc2n(n1)CCN2c1cc(C(=O)N2CCOCC2)cc(-c2cccc(O)c2)c1` [Compound I-220], no less than 95%. Still for that read-out and setting: for `CC(=O)Nc1cc2n(n1)CCN2C(=O)c1ccccc1` [Compound I-2] the value was no less than 95%; for `CNC(=O)Nc1cc2n(n1)CCN2c1cc(C(=O)OC)nc(Cl)n1` [Compound I-127], 79%; for `CCOC(=O)c1ccc(N2CCn3nc(NC(=O)NC)cc32)s1` [Compound I-211], 89%. With `O=C(Cn1ccnc1)Nc1cc2n(n1)CCN2c1cccc(Cl)c1` [Compound I-242], the inhibition at 50 µM was no less than 95%. Same read-out and setting: to `CNC(=O)Nc1nc2c(s1)CN(c1cc(Oc3ccccc3)nc(O)n1)CC2` [Compound I-151] belongs 80%; to `CNC(=O)Nc1nc2c(s1)CN(c1cc(Oc3ccccc3)nc(SC)n1)CC2` [Compound I-147], no less than 95%; to `CNC(=O)Nc1nc2c(s1)CN(c1cc(Oc3ccccc3)nc(OCCCOCc3ccccc3)n1)CC2` [Compound I-232], 76%.

On to `CNC(=O)Nc1cc2n(n1)CCN2c1ccc(C(=O)OC)c(OC)c1` [Compound I-144], for which the inhibition at 50 µM was no less than 95%. On to `CNC(=O)Nc1cc2n(n1)CCN2c1ccccc1` [Compound I-50], for which the inhibition at 50 µM is no less than 95%. Still for that read-out and setting: for `CNC(=O)Nc1nc2c(s1)CN(c1cc(Cl)ncn1)CC2` [Compound I-106] the value was no less than 95%.

Consider `CNC(=O)Nc1cc2n(n1)CCN2c1cc(/C=C/c2ccccc2)cc(C(=O)N2CCOCC2)c1` [Compound I-225], for which the inhibition at 50 µM was 93%. Still for that read-out and setting: to `CNC(=O)Nc1cc2n(n1)CCN2C(=O)Oc1ccccc1` [Compound I-51] belongs 87%. Same read-out and setting: for `CNC(=O)Nc1cc2n(n1)CCN2c1cccc(CC(=O)O)c1` [Compound I-153] the value was 74%; for `CNC(=O)Nc1cc2n(n1)CCN2c1ccc2ccccc2c1` [Compound I-176], no less than 95%.

Regarding `COc1cccc(N2CCn3nc(N)cc32)c1` [Compound I-286], the inhibition at 50 µM is 77%.

In the case of `CNC(=O)Nc1cc2n(n1)CCN2c1cccc(C(C)=O)c1` [Compound I-165], the inhibition at 50 µM was no less than 95%.

`CNC(=O)Nc1cc2n(n1)CCN(c1cncc(OC)c1)C2` [Compound I-65]: the inhibition at 50 µM was no less than 95%. On to `CNC(=O)Nc1cc2n(n1)CCN2c1cc(Br)cc(C(=O)NC(C)(C)C)c1` [Compound I-180], for which the inhibition at 50 µM is no less than 95%. The same measure, in the same setting: for `CNC(=O)Nc1cc2n(n1)CCN2c1cncc(OC)c1` [Compound I-79] the value was no less than 95%; for `CCOC(=O)c1ccc(N2CCn3nc(NC(=O)NC)cc32)cc1` [Compound I-85], no less than 95%. Still for that read-out and setting: for `CNC(=O)Nc1cc2n(n1)CCN2c1nc(C)c(C(=O)O)s1` [Compound I-201] the value was no less than 95%. Still for that read-out and setting: to `CNC(=O)Nc1nc2c(s1)CN(c1cc(C(N)=O)nc(Cl)n1)CC2` [Compound I-108] belongs no less than 95%. Turning to `CNC(=O)Nc1cc2n(n1)CCN2c1cccc(O)c1` [Compound I-105], the inhibition at 50 µM was no less than 95%. Same read-out and setting: for `CNC(=O)Nc1cc2n(n1)CCN2c1cc(Br)cc(C(=O)NCCC(=O)O)c1` [Compound I-186] the value was 89%; for `CNC(=O)Nc1cc2n(n1)CCN2c1ccc2c(c1)NC(=O)CC2` [Compound I-227], no less than 95%.

The assay is the same for the next values; noted with them: 0.5 h; compound at 10 μmol/L.
For `CN(C)C(=O)c1ccc(C(=O)Nc2cc3n(n2)CCN3c2ccc3c(c2)CCN(C)C3=O)s1` [Compound I-451], the inhibition at 10 µM was found to be 90%. `COc1cccc(NC(=O)Nc2nc3c(s2)CN(c2cc(OC)nc(OC)n2)CC3)c1` [Compound I-295]: the inhibition at 10 µM is 93%. For the compound `CNc1ccccc1C(=O)Nc1cc2n(n1)CCN2c1ccc2c(c1)CCN(C)C2=O` [Compound I-494], the inhibition at 10 µM is 78%. Still for that read-out and setting: for `COc1cc(N2CCc3nc(NC(=O)N4CCC(=O)N5CCOCC5C4=O)sc3C2)nc(OC)n1` (stereo not shown) [Compound I-304] the value was 89%; for `COc1cc(N2CCc3nc(NC(=O)N4CC(C(=O)NC(C)C)C4)sc3C2)nc(OC)n1` [Compound I-528], 76%.

As to `CN1CCc2cc(N3CCn4nc(NC(=O)c5cc(C(=O)O)cs5)cc43)ccc2C1=O` [Compound I-401], the inhibition at 10 µM came out at 93%. Still for that read-out and setting: to `Cc1ncsc1C(=O)Nc1cc2n(n1)CCN2c1ccc2c(c1)CCN(C)C2=O` [Compound I-449] belongs no less than 95%; to `CC(C)CNC(=O)c1ccc(C(=O)Nc2cc3n(n2)CCN3c2ccc3c(c2)CCN(C)C3=O)cc1` [Compound I-534], 91%.

On to `CN1CCc2cc(N3CCn4nc(NC(=O)NCCC(=O)OC(C)(C)C)cc43)ccc2C1=O` [Compound I-530], for which the inhibition at 10 µM turned out to be 92%. Still for that read-out and setting: for `CC(=O)c1ccc(C(=O)Nc2cc3n(n2)CCN3c2ccc3c(c2)CCN(C)C3=O)s1` [Compound I-440] the value was 92%; for `CN1CCc2cc(N3CCn4nc(NC(=O)c5cccc(C(=O)OC(C)(C)C)c5)cc43)ccc2C1=O` [Compound I-465], no less than 95%. The same measure, in the same setting: for `CCCNC(=O)Cc1cc(C(=O)Nc2cc3n(n2)CCN3c2ccc3c(c2)CCN(C)C3=O)cs1` [Compound I-496] the value was no less than 95%; for `COc1ccccc1C(=O)N1CCc2nc(NC(=O)Nc3ccccc3C(=O)NC(C)C)sc2C1` [Compound I-485], 79%. As for `CN1CCc2cc(N3CCn4nc(NC(=O)NCc5ccccc5)cc43)ccc2C1=O` [Compound I-370], the inhibition at 10 µM stood at 84%. The same measure, in the same setting: for `COCCOc1ccc(C(=O)Nc2cc3n(n2)CCN3c2ccc3c(c2)CCN(C)C3=O)cc1` [Compound I-549] the value was no less than 95%. Same read-out and setting: for `CN1CCc2cc(N3CCn4nc(NC(=O)c5ccc(C(N)=O)s5)cc43)ccc2C1=O` [Compound I-404] the value was 78%; for `COc1cc(N2CCc3nc(NC(=O)Nc4ccsc4)sc3C2)nc(OC)n1` [Compound I-297], 91%. On the same count and under the same terms, for `CCOc1ccc(C(=O)Nc2nc3c(s2)CN(c2cc(OC)nc(OC)n2)CC3)o1` [Compound I-457] the value was 88%; for `CN1CCc2cc(N3CCn4nc(NC(=O)c5cccc(OC(C)(C)C(=O)OC(C)(C)C)c5)cc43)ccc2C1=O` [Compound I-469], 85%.

In the case of `CC(C)CCNC(=O)CCNC(=O)Nc1cc2n(n1)CCN2c1ccc2c(c1)CCN(C)C2=O` [Compound I-538], the inhibition at 10 µM came out at 94%. Still for that read-out and setting: to `COc1cc(N2CCc3nc(NC(=O)Nc4ccc(C(C)(C)C)cc4)sc3C2)nc(OC)n1` [Compound I-289] belongs 90%; to `CN1CCc2cc(N3CCn4nc(NC(=O)c5cccc(F)c5)cc43)ccc2C1=O` [Compound I-464], no less than 95%; to `CN1CCc2cc(N3CCn4nc(NC(=O)c5ccc(N)cc5)cc43)ccc2C1=O` [Compound I-489], no less than 95%. Still for that read-out and setting: for `CC(C)NC(=O)c1ccccc1NC(=O)Nc1nc2c(s1)CN(C(=O)OCc1ccccc1)CC2` [Compound I-441] the value was 88%; for `CN1CCc2cc(N3CCn4nc(NC(=O)c5cc6ccccc6[nH]5)cc43)ccc2C1=O` [Compound I-345], 80%; for `CN1CCc2cc(N3CCn4nc(NC(=O)C(=O)c5cccs5)cc43)ccc2C1=O` [Compound I-450], no less than 95%.

Regarding `CN(C)C(=O)Nc1cc2n(n1)CCN2c1ccc2c(c1)CCN(C)C2=O` [Compound I-539], the inhibition at 10 µM was no less than 95%. With `COc1cc(N2CCc3nc(NC(=O)C4CCCCC4)sc3C2)nc(OC)n1` [Compound I-552], the inhibition at 10 µM worked out at 88%. In the case of `CN1CCc2cc(N3CCn4nc(NC(=O)c5cccc(O)c5)cc43)ccc2C1=O` [Compound I-461], the inhibition at 10 µM is 95%.

On to `CCCOc1ccc(C(=O)Nc2cc3n(n2)CCN3c2ccc3c(c2)CCN(C)C3=O)cc1` [Compound I-476], for which the inhibition at 10 µM turned out to be 94%. Same read-out and setting: for `CN1CCc2cc(N3CCn4nc(NC(=O)c5ccncc5)cc43)ccc2C1=O` [Compound I-360] the value was no less than 95%.

For orientation: inhibition means the relative decrease from the control value, in per cent.
